Laboratory results from patent US5055448A, “Linear derivatives of arginine vasopressin antagonists” (Medical College of Ohio, priority 1987, dated 1991).
Numbered stars: 1 amine (or outer) side, 2 acyl side, 3 side chain; on linkers, the order of the positions; unused ones are H or OH. Square brackets hold non-standard residues; d marks the D form. Peptide text beside a SMILES is read from it. * marks the point of attachment. Acetyl(1-adamantyl) = O=C(CC12CC3CC(CC(C3)C1)C2)*; Cyclohexylacetyl(1-SH) = O=C(CC1(S)CCCCC1)*; Ethylenediamine = C(CN[*:2])N[*:1]; Orn = NCCC[C@H](N)C(=O)O; Abu = CC[C@H](N)C(=O)O; X1 = CCC(S)(CC)CC(=O)*; Propionyl = CCC(=O)*

What was measured:
[1] = system: antidiuretic response to arginine vasopressin; set-up: species or system rats; details: rat, in vivo
Description: Activity as antidiuretic agonists was determined by intravenous injection of the compounds being evaluated in ethanol-anesthesized water-loaded rats in accordance with Sawyer, Endocrinology, vol. 63 (1958) at 694. Antagonism of the antidiuretic response to subsequent injections of arginine vasopressin was tested by the method of Sawyer et al., Science, vol. 212 (1981) at 49. Antagonistic potencies were determined and expressed as "effective doses" and pA2 values. The "effective dose" is defined as the dose (in nanomoles per kilogram) that reduces the response seen from 2x units of agonist injected 20 min after the dose of antagonist to the response with 1x units of agonist. Estimated in vivo "pA2 " values represent the negative logarithms of the effective doses, divided by the estimated volume of distribution (67 ml/kg).

[2] = system: vasopressor response to arginine vasopressin; details: in vivo
Description: Antagonism to the vasopressor response was estimated in accordance with […] et al., J. Med. Chem., vol. 17 (1974) at 969. The values are expressed as pA2 values, defined as in Schild et al., Br. J. Pharmacol., vol. 2 (1947) at 189. Antagonistic potencies were determined and expressed as "effective doses" and pA2 values. The "effective dose" is defined as the dose (in nanomoles per kilogram) that reduces the response seen from 2x units of agonist injected 20 min after the dose of antagonist to the response with 1x units of agonist. Estimated in vivo "pA2 " values represent the negative logarithms of the effective doses, divided by the estimated volume of distribution (67 ml/kg).

SMILES	Antiantidiuretic pA2 [1]	Antivasopressor pA2 [2]
CCOc1ccc(C[C@@H](NC(=O)CC23CC4CC(CC(C4)C2)C3)C(=O)N[C@@H](Cc2ccccc2)C(=O)N[C@H](C(=O)N[C@@H](CC(N)=O)C(=O)N[C@@H](CCCCN)C(=O)N2CCC[C@H]2C(=O)N[C@@H](CCCNC(=N)N)C(N)=O)C(C)C)cc1 [(1-adamantyl)acetyl-D-(O-ethyl)-tyrosyl-phenylalanyl-valyl-asaparaginyl-lysyl-prolyl-argininamide] ({Acetyl(1-adamantyl)}-[dY](Et)FVNKPR-NH2)	7.81 ± 0.08	8.02 ± 0.06
CCOc1ccc(C[C@@H](NC(=O)CC23CC4CC(CC(C4)C2)C3)C(=O)N[C@@H](Cc2ccccc2)C(=O)N[C@H](C(=O)N[C@@H](CC(N)=O)C(=O)N[C@@H](CC)C(=O)N2CCC[C@H]2C(=O)N[C@H](CCCNC(=N)N)C(=O)N[C@@H](CCCNC(=N)N)C(N)=O)C(C)C)cc1 [(1-adamantyl)acetyl-D-(O-ethyl)tyrosyl-phenylalanyl-valyl-asparaginyl-(2-amino)butyryl-prolyl-D-arginyl-argininamide] ({Acetyl(1-adamantyl)}-[dY](Et)FVN[Abu]P[dR]R-NH2)	7.85 ± 0.08	7.49 ± 0.06
CCOc1ccc(C[C@@H](NC(=O)CC23CC4CC(CC(C4)C2)C3)C(=O)N[C@@H](Cc2ccccc2)C(=O)N[C@H](C(=O)N[C@@H](CC(N)=O)C(=O)N[C@@H](CC)C(=O)N2CCC[C@H]2C(=O)N[C@@H](CCCNC(=N)N)C(N)=O)C(C)C)cc1 [(1-adamantyl)acetyl-D-(O-ethyl)tyrosyl-phenylalanyl-valyl-asparaginyl-(2-amino)butyryl-prolyl-argininamide] ({Acetyl(1-adamantyl)}-[dY](Et)FVN[Abu]PR-NH2)	7.20 ± 0.04	7.43 ± 0.06
CCOc1ccc(C[C@@H](NC(=O)CC23CC4CC(CC(C4)C2)C3)C(=O)N[C@@H](Cc2ccccc2)C(=O)N[C@H](C(=O)N[C@@H](CC(N)=O)C(=O)N[C@@H](CC)C(=O)N2CCC[C@H]2C(=O)N[C@@H](CCCNC(=N)N)C(=O)NCCN)C(C)C)cc1 [(1-adamantyl)acetyl-D-(O-ethyl)tyrosyl-phenylalanyl-valyl-asparaginyl-(2-amino)butyryl-prolyl-arginine-N-(2-aminoethyl)amide] ({Acetyl(1-adamantyl)}-[dY](Et)FVN[Abu]PR-Ethylenediamine)	7.71 ± 0.09	7.33 ± 0.09
CCOc1ccc(C[C@@H](NC(=O)CC23CC4CC(CC(C4)C2)C3)C(=O)N[C@@H](Cc2ccccc2)C(=O)N[C@H](C(=O)N[C@@H](CC(N)=O)C(=O)N[C@@H](CC)C(=O)N2CCC[C@H]2C(=O)N[C@@H](CCCNC(=N)N)C(=O)N[C@@H](C)C(N)=O)C(C)C)cc1 [(1-adamantyl)acetyl-D-(O-ethyl)tyrosyl-phenylalanyl-valyl-asparaginyl-(2-amino)butyryl-prolyl-arginyl-alaninamide] ({Acetyl(1-adamantyl)}-[dY](Et)FVN[Abu]PRA-NH2)	6.55 ± 0.04	7.18 ± 0.04
CCOc1ccc(C[C@@H](NC(=O)CC23CC4CC(CC(C4)C2)C3)C(=O)N[C@@H](Cc2ccccc2)C(=O)N[C@H](C(=O)N[C@@H](CC(N)=O)C(=O)N[C@@H](CC)C(=O)N2CCC[C@H]2C(=O)N[C@@H](CCCNC(=N)N)C(=O)N[C@@H](CCCNC(=N)N)C(N)=O)C(C)C)cc1 [(1-adamantyl)acetyl-D-(O-ethyl)tyrosyl-phenylalanyl-valyl-asparaginyl-(2-amino)butyryl-prolyl-arginyl-argininamide] ({Acetyl(1-adamantyl)}-[dY](Et)FVN[Abu]PRR-NH2)	8.11 ± 0.07	7.75 ± 0.07
CCOc1ccc(C[C@@H](NC(=O)CC23CC4CC(CC(C4)C2)C3)C(=O)N[C@@H](Cc2ccccc2)C(=O)N[C@H](C(=O)N[C@@H](CC(N)=O)C(=O)N[C@@H](CC)C(=O)N2CCC[C@H]2C(=O)N[C@@H](CCCNC(=N)N)C(=O)NCC(N)=O)C(C)C)cc1 [(1-adamantyl)acetyl-D-(O-ethyl)tyrosyl-phenylalanyl-valyl-asparaginyl-(2-amino)butyryl-prolyl-arginyl-glycinamide] ({Acetyl(1-adamantyl)}-[dY](Et)FVN[Abu]PRG-NH2)	7.50 ± 0.02	7.10 ± 0.07
CCOc1ccc(C[C@@H](NC(=O)CC23CC4CC(CC(C4)C2)C3)C(=O)N[C@@H](Cc2ccccc2)C(=O)N[C@H](C(=O)N[C@@H](CC(N)=O)C(=O)N[C@@H](CCCNC(=N)N)C(=O)N2CCC[C@H]2C(=O)N[C@@H](CCCNC(=N)N)C(N)=O)C(C)C)cc1 [(1-adamantyl)acetyl-D-(O-ethyl)tyrosyl-phenylalanyl-valyl-asparaginyl-arginyl-prolyl-argininamide] ({Acetyl(1-adamantyl)}-[dY](Et)FVNRPR-NH2)	7.73 ± 0.08	8.01 ± 0.05
CCOc1ccc(C[C@@H](NC(=O)CC23CC4CC(CC(C4)C2)C3)C(=O)N[C@@H](Cc2ccccc2)C(=O)N[C@H](C(=O)N[C@@H](CC(N)=O)C(=O)N[C@@H](CCCN)C(=O)N2CCC[C@H]2C(=O)N[C@@H](CCCNC(=N)N)C(N)=O)C(C)C)cc1 [(1-adamantyl)acetyl-D-(O-ethyl)tyrosyl-phenylalanyl-valyl-asparaginyl-ornithyl-prolyl-argininamide] ({Acetyl(1-adamantyl)}-[dY](Et)FVN[Orn]PR-NH2)	7.81 ± 0.10	7.33 ± 0.06
CCOc1ccc(C[C@@H](NC(=O)CC2(S)CCCCC2)C(=O)N[C@@H](Cc2ccccc2)C(=O)N[C@H](C(=O)N[C@@H](CC(N)=O)C(=O)N[C@@H](CC)C(=O)N2CCC[C@H]2C(=O)N[C@@H](CCCNC(=N)N)C(=O)NCC(N)=O)C(C)C)cc1 [(1-mercaptocyclohexyl)acetyl-D-(O-ethyl)tyrosyl-phenylalanyl-valyl-asparaginyl-(2-amino)butyryl-prolyl-arginyl-glycinamide] ({Cyclohexylacetyl(1-SH)}-[dY](Et)FVN[Abu]PRG-NH2)	7.42 ± 0.05	7.71 ± 0.05
CCOc1ccc(C[C@@H](NC(=O)CC2(S)CCCCC2)C(=O)N[C@@H](Cc2ccccc2)C(=O)N[C@H](C(=O)N[C@@H](CC(N)=O)C(=O)N[C@@H](CS)C(=O)N2CCC[C@H]2C(=O)N[C@@H](CCCNC(=N)N)C(=O)NCC(N)=O)C(C)C)cc1 [(1-mercaptocyclohexyl)acetyl-D-(O-ethyl)tyrosyl-phenylalanyl-valyl-asparaginyl-cysteinyl-prolyl-arginyl-glycinamide] ({Cyclohexylacetyl(1-SH)}-[dY](Et)FVNCPRG-NH2)	7.05 ± 0.08	7.51 ± 0.03
CCOc1ccc(C[C@@H](NC(=O)CC(S)(CC)CC)C(=O)N[C@@H](Cc2ccccc2)C(=O)N[C@H](C(=O)N[C@@H](CC(N)=O)C(=O)N[C@@H](CC)C(=O)N2CCC[C@H]2C(=O)N[C@@H](CCCNC(=N)N)C(=O)NCC(N)=O)C(C)C)cc1 [(3-ethyl-3-mercapto)valeroyl-D-(O-ethyl)tyrosyl-phenylalanyl-valyl-asparaginyl-(2-amino)butyryl-prolyl-arginyl-glycinamide] (X1-[dY](Et)FVN[Abu]PRG-NH2)	7.09 ± 0.09	6.94 ± 0.04
CCOc1ccc(C[C@@H](NC(=O)CC)C(=O)N[C@@H](Cc2ccccc2)C(=O)N[C@H](C(=O)N[C@@H](CC(N)=O)C(=O)N[C@@H](CC)C(=O)N2CCC[C@H]2C(=O)N[C@@H](CCCNC(=N)N)C(=O)N[C@@H](CCCNC(=N)N)C(N)=O)C(C)C)cc1 [propionyl-D-(O-ethyl)tyrosyl-phenylalanyl-valyl-asparaginyl-(2-amino)butyryl-prolyl-arginyl-argininamide] (Propionyl-[dY](Et)FVN[Abu]PRR-NH2)	7.74 ± 0.07	6.71 ± 0.09
